From patent US11390631B1, “Benzodiazepine derivatives as RSV inhibitors” (priority 2015, dated 2022) come the findings set out here.

The EC50 is the concentration at which the effect is half-maximal.

The test system of the assay is Human RSV-A (“Long” strain). Description: RSV-A assay: inhibition of cytopathic effect in Hep-2 cells, ATPlite readout. Type of assay: cell-based, Human respiratory syncytial virus (HRSV). Conditions: human respiratory syncytial virus, HEp-2, 120 h, read-out: Human RSV-A (“Long” strain) EC50. The method, boiled down: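 Cytopathic-effect protection was read as ATP content (ATPlite luminescence) after a 5-day incubation. Setup: Hep-2 cells at 8,000 per well, RSV-A Long at MOI 0.1, 2-fold serial compound dilutions in duplicate. Cytotoxicity (CC50) was measured on an identical uninfected plate run in parallel.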
A general note: Cytopathic effects are the visible damage that an infection or toxin causes in cultured cells.
On to `O=C1Nc2ccccc2C(c2ccccc2)=N[C@@H]1Nc1nnc(-c2nnsc2N2CCOCC2)o1` [Example 292], for which the EC50 is less than 0.4 µM.

For the molecule `O=C1Nc2ccccc2C(c2ccccc2)=N[C@@H]1Nc1nnc(-c2ncc(C(F)(F)F)cc2C2CC2)o1` [Example 293], the EC50 is more than 0.8 µM.

In the case of `C[C@@H]1COCCN1c1cc(C(F)(F)F)cnc1-c1nnc(N[C@H]2N=C(c3ccccc3)c3ccccc3NC2=O)o1` [Example 294], the EC50 was less than 0.4 µM.

In the case of `COc1ccc(-c2nnc(N[C@H]3N=C(c4ccccc4)c4ccccc4NC3=O)o2)c(N2CCOCC2)n1` [Example 295], the EC50 is less than 0.4 µM.

Turning to `CN1CCN(c2cc(C(F)(F)F)cnc2-c2nnc(N[C@H]3N=C(c4ccccc4)c4ccccc4NC3=O)o2)CC1=O` [Example 296], the EC50 was more than 0.8 µM.

Regarding `CC(C)(O)CNc1cc(C(F)(F)F)cnc1-c1nnc(N[C@H]2N=C(c3ccccc3)c3ccccc3NC2=O)o1` [Example 297], the EC50 is less than 0.4 µM.

Regarding `COCCn1c(-c2nnc(N[C@H]3N=C(c4ccccc4)c4ccccc4NC3=O)o2)nc2ccccc21` [Example 298], the EC50 is more than 0.8 µM.

`O=C1Nc2ccccc2C(c2ccccc2)=N[C@@H]1Nc1nnc(-c2ncc(F)cc2N2CC3CCC(C2)O3)o1` [Example 299]: the EC50 is less than 0.4 µM.

In the case of `C[C@@H]1COCCN1c1cc(C#N)cnc1-c1nnc(N[C@H]2N=C(c3ccccc3)c3ccccc3NC2=O)o1` [Example 301], the EC50 is less than 0.4 µM.

In the case of `CN(C)c1cc(C(F)(F)F)cnc1-c1nnc(N[C@H]2N=C(c3ccccc3)c3ccccc3NC2=O)o1` [Example 302], the EC50 was more than 0.8 µM.

Consider `COCCNc1cc(C(F)(F)F)cnc1-c1nnc(N[C@H]2N=C(c3ccccc3)c3ccccc3NC2=O)o1` [Example 305], for which the EC50 was less than 0.4 µM.

With `COCCn1ccnc1-c1nnc(N[C@H]2N=C(c3ccccc3)c3ccccc3NC2=O)o1` [Example 306], the EC50 was more than 0.8 µM.

`CNc1cc(C(F)(F)F)cnc1-c1nnc(N[C@H]2N=C(c3ccccc3)c3ccccc3NC2=O)o1` [Example 307]: the EC50 is more than 0.8 µM.

Take `CN(CC(C)(C)O)c1cc(C(F)(F)F)cnc1-c1nnc(N[C@H]2N=C(c3ccccc3)c3ccccc3NC2=O)o1` [Example 308]: the EC50 is more than 0.8 µM.

Regarding `N#Cc1ccc(-c2nnc(N[C@H]3N=C(c4ccccc4)c4ccccc4NC3=O)o2)c(-c2ccsc2)c1` [Example 309], the EC50 was more than 0.8 µM.

On to `COCCn1nccc1-c1nnc(N[C@H]2N=C(c3ccccc3)c3ccccc3NC2=O)o1` [Example 310], for which the EC50 was more than 0.8 µM.

As for `C#Cc1cnc(-c2nnc(N[C@H]3N=C(c4ccccc4)c4ccccc4NC3=O)o2)c(N2CCOCC2)c1` [Example 311], the EC50 is less than 0.4 µM.

In the case of `O=C1Nc2ccccc2C(c2ccccc2)=N[C@@H]1Nc1nnc(-c2ncc(C3=CCCCC3)cc2N2CCOCC2)o1` [Example 312], the EC50 lay within 0.4 to 0.8 µM.

Consider `O=C1Nc2ccccc2C(c2ccccc2)=N[C@@H]1Nc1nnc(-c2ncc(C3CCCCC3)cc2N2CCOCC2)o1` [Example 313], for which the EC50 is less than 0.4 µM.

As to `O=C1Nc2ccccc2C(c2ccccc2)=N[C@@H]1Nc1nnc(-c2ncc(N3CCCC3)cc2N2CCOCC2)o1` [Example 314], the EC50 was less than 0.4 µM.

As to `O=C1Nc2ccccc2C(c2ccccc2)=N[C@@H]1Nc1nnc(-c2ncc3ccccc3c2N2CCOCC2)o1` [Example 316], the EC50 is more than 0.8 µM.

As for `O=C1Nc2ccccc2C(c2ccccc2)=N[C@@H]1Nc1nnc(-c2ccc(N3CCCC3)cc2N2CCOCC2)o1` [Example 317], the EC50 is less than 0.4 µM.

Consider `O=C1Nc2ccccc2C(c2ccccc2)=N[C@@H]1Nc1nnc(-c2nc(C3CC3)ccc2N2CCOCC2)o1` [Example 318], for which the half-maximal effective concentration (EC50) is less than 0.4 µM.

In the case of `N#Cc1ccc(-c2nnc(N[C@H]3N=C(c4ccccc4)c4ccccc4NC3=O)o2)c(-c2ccoc2)c1` [Example 319], the EC50 was more than 0.8 µM.

Consider `Cc1noc(C)c1-c1cc(C#N)ccc1-c1nnc(N[C@H]2N=C(c3ccccc3)c3ccccc3NC2=O)o1` [Example 320], for which the EC50 is more than 0.8 µM.
